Assays:
[1] = target: T1, P-selectin-lg fusion protein (Homo sapiens, UniProt P16109); assay: Competition ELISA: binding of P-selectin-Ig to immobilized BSA-sLe^x; details: for IC50: read-out: IC50, P-selectin binding
T1 construct: Each selectin-lg contains the lectin domain, epidermal growth factor domain, and one (L-selectin-lg), two (P-selectin-lg) or six (E-selectin-lg) complement regulatory repeats; made in house
Excerpt: Selectin-lg fusion proteins are recombinant chimeric molecules containing extracellular regions of selectins coupled to the hinge, CH2, and CH3 regions of human IgG1 (Aruffo, A., et al., Cell, 67:35, 1991; Walz, G., et al., Science, 250:1132, 1990). Each selectin-lg contains the lectin domain, epidermal growth factor domain, and one (L-selectin-lg), two (P-selectin-lg) or six (E-selectin-lg) complement regulatory repeats of the parent molecules. DNAs encoding selectin-Ig inserted in pCDM7 allowed transient expression of recombinant proteins in COS cells as previously described (Seed, B., et al., Proc. Natl. Acad. Sci., U.S.A., 84:3365, 1987; Aruffo, A., Current Protocols In Molecular Biology, eds. Ausubel, F. M., et al, 16:13.1, Greene Publishing Associates and Wiley-lnterscience, New York, N.Y., 1992). These DNAs were also ligated into pNUT (Palmiter, R. D., et al, Cell, 50:435, 1987) for amplification and stable expression in BHK cells. The fusion proteins were affinity purified from culture media using protein A (Pierce Chemical Company, Rockford, Ill.) or protein G (Pharmacia, Piscataway, N.J.) Sepharose, as previously described (Aruffo, A., et al., Cell, 67:35, 1991; Aruffo, A., Current Protocols In Molecular Biology, eds. Ausubel, F. M., et al, supra, 1992). Competition binding ELISAs using P- and E-selectin-lg were performed essentially as described (Nelson, R. M., et al., J. Clin. Invest., 91:1157, 1993), except that the assay buffer was 20 mM HEPES pH 7.4, 150 mM NaCl, 2 mM CaCl2, and 0.25 mM thimerosal, containing 10 mg/ml BSA, protease-free, (Miles Inc., Kankakee, Ill.). Selectin concentrations were from 10 to 30 nM. […] To increase L-selectin binding, an assay similar to that previously described was used (Foxall, C., et al., J. Cell Biol., 117:895, 1992), in which the L-selectin-lg (10-20 nM) was allowed to form aggregates with HRP-conjugated anti-lg antibody for 30 minutes prior to addition of inositols and incubation on the BSA-sLe^x -coated plate. IC50 values were calculated by fitting binding data to the equation: fraction of maximal binding=IC50 […] using nonlinear least squares analysis software (Origin, Microcal Inc, Northampton, Mass.). InsP6 (dodecasodium salt), InsS6 (hexapotassium salt), myo-inositol 1 monophosphate (cyclohexylammonium salt), and myo-inositol were from Sigma Chemical Company (St. Louis, Mo.). Stock solutions were prepared daily in 0.9% NaCl and sterilized by 0.22 μm filtration. InsP6 solutions were adjusted at pH 7.4 with HCl.
L-, P-, or E-selectin-lg fusion proteins were incubated for 2-3 hours on microtiter plates coated with the neoglycoprotein BSA-sLe^x, the plates washed, and bound selectin-lg was detected using a peroxidase-conjugated antibody directed against the lg portion and a chromogenic substrate. To determine blocking activity, solution-phase lnsP6 (.circle-solid.), InsS6 (.largecircle.), or inositol (.box-solid.) at the indicated concentrations were added to the solutions containing selectin-Ig fusion proteins prior to transfer to microtiter plates (competition ELISA).

selectin = assay: Selectin-sulfatide interactions; type: binding
P-selectin (P-COS) = target: T2, P-selectin (P-COS) (Homo sapiens, UniProt P16109); assay: PMN adhesion to P-selectin transfected COS cells (P-COS); type: cell-based; details: for PMN adhesion to P-selectin transfected COS: inositol up to 10 mM, InsP6 0.5 mM
T2 construct: adhesion of human PMN or HL60
T2 sequence (P16109 42-830): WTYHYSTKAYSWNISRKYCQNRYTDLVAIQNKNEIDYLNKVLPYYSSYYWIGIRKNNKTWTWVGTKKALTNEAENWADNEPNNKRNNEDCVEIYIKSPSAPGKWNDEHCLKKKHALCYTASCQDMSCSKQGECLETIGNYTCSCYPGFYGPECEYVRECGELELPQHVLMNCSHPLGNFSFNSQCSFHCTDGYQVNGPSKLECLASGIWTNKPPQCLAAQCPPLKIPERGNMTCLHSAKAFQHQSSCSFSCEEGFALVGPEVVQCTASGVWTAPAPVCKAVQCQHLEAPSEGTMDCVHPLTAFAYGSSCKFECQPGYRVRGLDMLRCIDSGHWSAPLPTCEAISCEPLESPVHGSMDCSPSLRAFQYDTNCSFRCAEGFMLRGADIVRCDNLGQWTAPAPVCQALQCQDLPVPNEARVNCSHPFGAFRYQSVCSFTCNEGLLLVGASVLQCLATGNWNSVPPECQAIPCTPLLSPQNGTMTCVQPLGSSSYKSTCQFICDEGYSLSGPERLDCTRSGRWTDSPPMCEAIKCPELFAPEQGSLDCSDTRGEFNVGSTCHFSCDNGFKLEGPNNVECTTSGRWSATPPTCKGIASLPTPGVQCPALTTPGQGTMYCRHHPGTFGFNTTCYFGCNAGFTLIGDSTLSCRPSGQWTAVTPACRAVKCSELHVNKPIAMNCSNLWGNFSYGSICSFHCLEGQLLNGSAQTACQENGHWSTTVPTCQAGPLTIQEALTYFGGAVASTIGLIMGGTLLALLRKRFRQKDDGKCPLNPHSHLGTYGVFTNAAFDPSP
Protocol: COS-1 cells were transfected as described (Seed, B., et al., Proc. Natl. Acad. Sci., U.S.A., 84:3365, 1987; Aruffo, A., Current Protocols In Molecular Biology, eds. supra, 1992) with pCDM7/pCDM8 expression vectors containing the full-length E-, P- and L-selectin cDNA. Transfected COS-1 cells were seeded on gelatin coated coverslips.

T1 sequence (P16109 with tags, fused parts or gaps limits assumed): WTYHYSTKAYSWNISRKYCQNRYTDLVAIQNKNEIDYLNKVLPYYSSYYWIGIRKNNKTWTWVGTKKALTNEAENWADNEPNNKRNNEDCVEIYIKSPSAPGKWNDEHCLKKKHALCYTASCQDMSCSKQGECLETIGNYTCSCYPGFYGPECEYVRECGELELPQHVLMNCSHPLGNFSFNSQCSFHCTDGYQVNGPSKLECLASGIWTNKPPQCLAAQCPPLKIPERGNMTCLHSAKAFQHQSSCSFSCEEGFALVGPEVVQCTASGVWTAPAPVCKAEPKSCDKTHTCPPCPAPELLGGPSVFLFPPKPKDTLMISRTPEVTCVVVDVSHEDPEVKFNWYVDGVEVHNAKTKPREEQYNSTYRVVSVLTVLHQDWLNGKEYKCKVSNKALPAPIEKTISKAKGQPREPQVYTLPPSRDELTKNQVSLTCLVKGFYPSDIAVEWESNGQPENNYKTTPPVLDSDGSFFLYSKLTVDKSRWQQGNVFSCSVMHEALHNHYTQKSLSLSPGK

| SMILES | IC50 ([1]; BSA-sLe^x competition ELISA) | blocking of P-selectin-Ig at reduced Ca^2+ ([1]; Ca^2+ reduced to 0.15 mM) | blocking of selectin-sulfatide interactions (selectin) | PMN adhesion to P-selectin transfected COS (P-selectin (P-COS)) | blocking of P-selectin-Ig binding ([1]; BSA-sLe^x competition ELISA) | inhibition at 5000 µM (P-selectin (P-COS); COS, 5 mM, read-out: blocking of PMN adhesion to P-selectin transfected COS) |
| --- | --- | --- | --- | --- | --- | --- |
| O=P(O)(O)O[C@H]1[C@H](OP(=O)(O)O)[C@@H](OP(=O)(O)O)[C@H](OP(=O)(O)O)[C@@H](OP(=O)(O)O)[C@H]1OP(=O)(O)O [InsP6, myo-inositol hexakisphosphate] | 160 ± 40 µM | not enhanced | blocked selectin-sulfatide interactions at concentrations similar to those that were effective in blocking the binding to BSA-sLe^x | blocked PMN adhesion to P-COS |  |  |
| O[C@H]1[C@H](O)[C@@H](O)[C@H](O)[C@@H](O)[C@H]1O [myo-inositol, reference compound] |  |  | not inositol) blocked selectin-sulfatide interactions | no effect at concentrations up to 10 mM | not myo-isositol, blocked binding |  |
| O=S(=O)(O)O[C@H]1[C@H](OS(=O)(=O)O)[C@@H](OS(=O)(=O)O)[C@H](OS(=O)(=O)O)[C@@H](OS(=O)(=O)O)[C@H]1OS(=O)(=O)O [InsS6, myo-inositol hexakissulfate] | 3200 ± 500 µM |  | blocked selectin-sulfatide interactions at concentrations similar to those that were effective in blocking the binding to BSA-sLe^x |  |  | 63% |

— patent US5827837A, “Polyanion anti-inflammatory agents” (priority 1996, dated 1998)
